According to ChEMBL document CHEMBL1128133, “Synthesis and binding affinity of 2,3,3a,4,9,9a-hexahydro-9,4-(iminomethano)-1H-benz[f]indenes. Ligands for the PCP site of the NMDA receptor” (Bioorg Med Chem Lett, 1995):

assay: Binding affinity against PCP site of the NMDA Receptor using [3H]TCP radioligand

Going from `Oc1cccc(C2(N3CCCCC3)CCCCC2)c1` to `CN1CC2c3ccccc3C1C1CCCC21` (stereo not given), the Ki rises from 0.038 µM to 1.14 µM (30-fold). The first binds more tightly here.

Compared with `C[C@H]1NC2c3cccc(N)c3C1C1CCCC21` (stereo not given in full), `C[C@@H]1NC2c3cccc(N)c3C1C1CCCC21` (stereo in doubt; 13) is 150-fold higher in Ki: 0.008 µM for the first, 1.2 µM for the second.

First: Nc1cccc2c1C1CNC2C2CCCC12 (stereo not given)
Second: c1ccc2c(c1)C1CNC2C2CCCC12 (stereo not given)
The Ki of the first is 3.7-fold lower: 0.014 µM for the first, 0.052 µM for the second.

First: CN1CC2c3c(N)cccc3C1C1C=CCC21 (stereo not given)
Second: CN1CC2c3c(N)cccc3C1C1CCCC21 (stereo not given)
The Ki of the first is 3.1-fold higher: 0.701 µM for the first, 0.226 µM for the second.

First: C[C@@H]1NC2c3cccc(N)c3C1C1CCCC21 (stereo in doubt; 12a)
Second: C[C@]12N[C@H](Cc3ccccc31)c1ccccc12 [DIZOCILPINE]
The Ki of the first is 40-fold higher: 0.089 µM for the first, 0.0022 µM for the second. The second binds more tightly here.
